Laboratory results: publication PMC9218685, “Legume Plant Peptides as Sources of Novel Antimicrobial Molecules Against Human Pathogens” (Frontiers in Molecular Biosciences, 2022)
Converted amounts (≈) assume the structure as drawn. “Also recorded” adds a separate entry of the source. Peptide text beside a SMILES is read from it.

Columns and labels:
Assay type in all cases: cell-based
[1] = test system: Acinetobacter baumannii (ATCC 17978); assay: microbe, parasite or virus in culture; settings: ATCC 17978, 3 h
Procedure, shortened: (§1)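 MBC read as lowest peptide concentration giving no viable bacteria; ~10^7 log-phase cells, PPB pH 7.4, 3 h treatment, 2-fold dilutions from 25 µM.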

[2] = test system: Salmonella enterica (ATCC 13076); settings: ATCC 13076, 3 h
Procedure, shortened: as §1

[3] = test system: Pseudomonas aeruginosa (ATCC 27853); settings: ATCC 27853, 3 h
Procedure, shortened: as §1

[4] = test system: Staphylococcus aureus (HNCMO112011); settings: HNCMO112011, 3 h
Procedure, shortened: as §1

[5] = test system: Klebsiella pneumoniae (NCTC 13440); settings: NCTC 13440, 3 h
Procedure, shortened: as §1

[6] = test system: Escherichia coli (ATCC 8739); settings: ATCC 8739, 3 h
Procedure, shortened: as §1

[7] = test system: Enterococcus faecalis (ATCC 29212)
Procedure, shortened: as §1

[8] = test system: Listeria monocytogenes (ATCC 19111); settings: ATCC 19111, 3 h
Procedure, shortened: as §1

[9] = test system: E. coli, S. enteritidis, P. aeruginosa, L. monocytogenes, S. aureus, E. faecalis, K. pneumoniae and A. baumannii; assay: Antimicrobial activity assay, spectrum over the eight tested pathogenic bacteria; settings: 3 h treatment of ~10^7 log phase bacteria, peptides 25 to 0.8 µM; active = MBC ≤25 µM
Procedure, shortened: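 MBC taken as the lowest peptide concentration leaving no viable bacteria after 3 h exposure of ~10^7 log-phase cells. Peptides tested by 2-fold serial dilution, 25 µM down to 0.8 µM, in PPB (pH 7.4). Gram-positive and Gram-negative reference strains from ATCC, NCTC and HNCMO collections.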

Row | Compound | MBC Acinetobacter baumannii [1] [µM] | MBC Salmonella enterica [2] [µM] | MBC Pseudomonas aeruginosa [3] [µM] | MBC Staphylococcus aureus [4] [µM] | MBC Klebsiella pneumoniae [5] [µM] | MBC Escherichia coli [6] [µM] | Ability to kill E. faecalis ([7]; 3 h, ~10^7 log phase bacteria, peptides ≤25 µM) | MBC Enterococcus faecalis ([7]; ATCC 29212, 3 h) [µM] | MBC Listeria monocytogenes [8] [µM] | Antibacterial spectrum over the eight tested bacterial strains [9]
1 | CC(C)C[C@H](NC(=O)[C@H](CS)NC(=O)[C@H](CCCCN)NC(=O)CNC(=O)[C@@H](N)Cc1ccccc1)C(=O)N[C@@H](CCCCN)C(=O)N[C@@H](CC(C)C)C(=O)N[C@@H](CCCCN)C(=O)N[C@@H](CS)C(=O)N[C@H](C(=O)N[C@@H](Cc1ccc(O)cc1)C(=O)N[C@H](C(=O)N1CCC[C@H]1C(=O)N[C@@H](CCCCN)C(=O)N[C@@H](CCCNC(=N)N)C(N)=O)[C@@H](C)O)C(C)C [GoNCR308 (16-30)] (H-FGKCLKLKCVYTPKR-NH2; N-terminus assumed) | 3.125 (≈ 5.57 µg/mL) | 3.125 (≈ 5.57 µg/mL) | 3.125 (≈ 5.57 µg/mL) | 50 (≈ 89.2 µg/mL) | 25 (≈ 44.6 µg/mL) | 3.125 (≈ 5.57 µg/mL) | – | – | – | –
2 | CC[C@H](C)[C@H](NC(=O)[C@H](CCC(N)=O)NC(=O)[C@H](CCCCN)NC(=O)[C@H](CCCNC(=N)N)NC(=O)[C@@H](NC(=O)[C@H](Cc1ccccc1)NC(=O)[C@H](Cc1ccccc1)NC(=O)[C@H](Cc1ccc(O)cc1)NC(=O)[C@H](Cc1c[nH]cn1)NC(=O)[C@H](CS)NC(=O)[C@H](Cc1ccccc1)NC(=O)[C@H](CCCCN)NC(=O)CNC(=O)[C@@H](NC(=O)[C@H](CS)NC(=O)[C@H](CCSC)NC(=O)[C@H](CCSC)NC(=O)[C@@H](NC(=O)[C@@H](NC(=O)[C@@H]1CCCN1C(=O)[C@H](CCCCN)NC(=O)[C@@H](NC(=O)[C@@H](NC(=O)[C@H](CCCCN)NC(=O)[C@@H]1CCCN1C(=O)[C@H](CS)NC(=O)[C@H](CC(=O)O)NC(=O)[C@H](CC(=O)O)NC(=O)[C@@H](NC(=O)[C@@H](NC(=O)[C@H](C)NC(=O)[C@H](CS)NC(=O)[C@H](CCCNC(=N)N)NC(=O)[C@@H](NC(=O)[C@H](CC(=O)O)NC(=O)[C@H](CC(C)C)NC(=O)[C@H](CCCCN)NC(=O)[C@@H](N)CCC(=O)O)[C@@H](C)CC)[C@@H](C)O)C(C)C)C(C)C)[C@@H](C)O)C(C)C)C(C)C)[C@@H](C)O)C(C)C)C(=O)N[C@@H](CC(C)C)C(=O)O [NCR073] (H-EKLDIRCATVDDCPKVTKPVVMMCTGKFCHYFFVRKQIL-OH; N-terminus assumed) | 1.6 (≈ 7.3 µg/mL) | 6.25 (≈ 28.5 µg/mL) | 6.25 (≈ 28.5 µg/mL) | 6.25 (≈ 28.5 µg/mL) | 6.25 (≈ 28.5 µg/mL) | 3.125 (≈ 14.3 µg/mL) | able to kill | 6.25 (≈ 28.5 µg/mL) | 6.25 (≈ 28.5 µg/mL) | capable of killing all tested bacteria; also recorded: active against all the eight tested pathogens
3 | CSCC[C@H](NC(=O)[C@H](Cc1ccccc1)NC(=O)[C@H](CCCCN)NC(=O)[C@@H]1CCCN1C(=O)[C@H](CS)NC(=O)[C@H](CCCNC(=N)N)NC(=O)CNC(=O)[C@H](CC(=O)O)NC(=O)[C@H](CCCNC(=N)N)NC(=O)CNC(=O)[C@H](CS)NC(=O)[C@H](CC(C)C)NC(=O)[C@@H](NC(=O)[C@H](CCCNC(=N)N)NC(=O)[C@@H](N)CCSC)C(C)C)C(=O)N[C@@H](CS)C(=O)N[C@@H](CCCNC(=N)N)C(=O)N[C@H](C(=O)N[C@@H](Cc1ccccc1)C(=O)N[C@@H](CC(C)C)C(=O)O)[C@@H](C)O [NCR280] (H-MRVLCGRDGRCPKFMCRTFL-OH; N-terminus assumed) | 1.6 (≈ 3.82 µg/mL) | 3.125 (≈ 7.47 µg/mL) | 12.5 (≈ 29.9 µg/mL) | – | 25 (≈ 59.8 µg/mL) | 3.125 (≈ 7.47 µg/mL) | – | – | 3.125 (≈ 7.47 µg/mL) | active against all strains except S. aureus and E. faecalis
4 | CC[C@H](C)[C@H](NC(=O)[C@H](CC(N)=O)NC(=O)[C@H](Cc1ccc(O)cc1)NC(=O)[C@H](CCCCN)NC(=O)[C@H](CCCCN)NC(=O)[C@H](Cc1ccccc1)NC(=O)[C@H](CCCCN)NC(=O)[C@@H]1CCCN1C(=O)[C@H](CS)NC(=O)[C@H](CC(=O)O)NC(=O)[C@H](CCCCN)NC(=O)[C@H](CC(=O)O)NC(=O)[C@@H](NC(=O)[C@@H](NC(=O)[C@H](CS)NC(=O)[C@H](Cc1ccc(O)cc1)NC(=O)[C@H](CCC(N)=O)NC(=O)[C@H](CCCNC(=N)N)NC(=O)[C@@H](NC(=O)[C@H](CC(C)C)NC(=O)[C@@H]1CCCN1C(=O)[C@H](CC(N)=O)NC(=O)[C@H](Cc1ccccc1)NC(=O)[C@H](CO)NC(=O)[C@@H](N)CC(=O)O)[C@@H](C)CC)C(C)C)[C@@H](C)O)C(=O)N[C@@H](CCCNC(=N)N)C(=O)N[C@@H](CS)C(=O)N[C@@H](CCCNC(=N)N)C(=O)N[C@@H](CCCCN)C(=O)NCC(=O)N[C@@H](Cc1ccccc1)C(=O)N[C@@H](CS)C(=O)N[C@H](C(=O)N[C@@H](CCC(N)=O)C(=O)N[C@H](C(=O)N[C@@H](CC(N)=O)C(=O)NCC(=O)NCC(=O)O)C(C)C)C(C)C [NCR377] (H-DSFNPLIRQYCVTDKDCPKFKKYNIRCRKGFCVQVNGG-OH; N-terminus assumed) | 6.25 (≈ 27.8 µg/mL) | 6.25 (≈ 27.8 µg/mL) | 3.125 (≈ 13.9 µg/mL) | 6.25 (≈ 27.8 µg/mL) | 12.5 (≈ 55.5 µg/mL) | 3.125 (≈ 13.9 µg/mL) | – | – | 12.5 (≈ 55.5 µg/mL) | kill all bacteria except E. faecalis
5 | CC[C@H](C)[C@H](NC(=O)[C@H](CC(C)C)NC(=O)[C@H](CC(N)=O)NC(=O)[C@@H](NC(=O)[C@H](CS)NC(=O)[C@H](Cc1ccc(O)cc1)NC(=O)CNC(=O)[C@H](CCCCN)NC(=O)[C@H](CCCNC(=N)N)NC(=O)[C@H](CS)NC(=O)[C@H](CCCNC(=N)N)NC(=O)[C@@H](NC(=O)[C@H](CC(N)=O)NC(=O)[C@H](CCSC)NC(=O)CNC(=O)[C@H](C)NC(=O)[C@H](CCCNC(=N)N)NC(=O)[C@H](CCCNC(=N)N)NC(=O)[C@@H](NC(=O)[C@H](CS)NC(=O)[C@H](CC(=O)O)NC(=O)[C@H](CCCCN)NC(=O)[C@H](CC(=O)O)NC(=O)[C@@H](NC(=O)[C@@H](NC(=O)[C@H](CS)NC(=O)[C@@H]1CCCN1C(=O)[C@H](CC(N)=O)NC(=O)[C@@H]1CCCN1C(=O)[C@@H](NC(=O)[C@H](Cc1c[nH]cn1)NC(=O)[C@H](CO)NC(=O)[C@H](Cc1ccc(O)cc1)NC(=O)[C@@H](N)Cc1ccccc1)C(C)C)[C@@H](C)CC)[C@@H](C)O)[C@@H](C)CC)[C@@H](C)CC)C(C)C)C(=O)N[C@@H](CC(C)C)C(=O)N[C@@H](CCCNC(=N)N)C(=O)O [NCR700] (H-FYSHVPNPCITDKDCIRRAGMNIRCRKGYCVNLILR-OH; N-terminus assumed) | 1.6 (≈ 6.76 µg/mL) | 12.5 (≈ 52.8 µg/mL) | 6.25 (≈ 26.4 µg/mL) | – | 12.5 (≈ 52.8 µg/mL) | 3.125 (≈ 13.2 µg/mL) | – | – | 1.6 (≈ 6.76 µg/mL) | active against all strains except S. aureus and E. faecalis
